Each block holds one molecule with its values, some of them ahead of it.
Columns and labels:
[1] = Inhibition of Hepatitic C virus NS3/4A protease by FRET assay; parameters: species or system Hepacivirus hominis
[2] = Selectivity index, ratio of CC50 for human Huh7.5 cells to EC50 for Hepatitis C virus infected in human HuH7.5 cells; format: toxicity, cell-based, Huh-7; conditions: read-out: Ratio CC50/EC50
[3] = tested on: Hepatitis C virus; test: Antiviral activity against Hepatitis C virus infected in human Huh7.5 cells assessed as inhibition of viral replication after 96 hrs by quantitative RT-PCR analysis; format: functional, organism-based, Hepacivirus hominis; conditions: Huh-7, 96 h
[4] = Cytotoxicity against human Huh7.5 cells after 96 hrs by MTT assay; format: cell-based, Huh-7

SMILES: COc1cc(/C=C/CO[C@@H]2O[C@H](CO)[C@@H](O)[C@H](O)[C@H]2O)cc(OC)c1O
IC50 [1]: > 10 µg/mL

SMILES: COc1ccc(CO)cc1O[C@@H]1O[C@H](COC(=O)c2cc(O)c(O)c(O)c2)[C@@H](O)[C@H](O)[C@H]1O
IC50 [1]: > 10 µg/mL

SMILES: COc1cc(CO[C@@H]2O[C@H](CO)[C@@H](O)[C@H](O)[C@H]2O)cc(OC)c1O
IC50 [1]: > 10 µg/mL

SMILES: O=C(O[C@@H]1O[C@@H]2COC(=O)c3cc(O)c(O)c(O)c3-c3c(cc(O)c(O)c3O)C(=O)O[C@@H]([C@@H]2O)[C@H]1OC(=O)c1cc(O)c(O)c(O)c1)c1cc(O)c(O)c(O)c1
IC50 [1]: > 10 µg/mL

SMILES: O=C(O[C@@H]1O[C@@H]2COC(=O)c3cc(O)c(O)c(O)c3-c3c(cc(O)c(O)c3O)C(=O)O[C@H]([C@H]1O)[C@@H]2OC(=O)c1cc(O)c(O)c(O)c1)c1cc(O)c(O)c(O)c1
IC50 [1]: > 10 µg/mL

SMILES: O=C(O)C[C@@H]1C(=O)O[C@H]2[C@@H]3OC(=O)c4cc(O)c(O)c(O)c4-c4c(cc(O)c(O)c4O)C(=O)OC[C@H]2O[C@@H](OC(=O)c2cc(O)c(O)c(O)c2)[C@@H]3OC(=O)c2cc(O)c(O)c3c2[C@H]1[C@H](O)C(=O)O3 [CHEBULAGIC ACID]
IC50 ([1]; read-out: IC50): 9.03 µM
selectivity ratio [2]: 4.7
EC50 [3]: 22.2 µM
CC50 at 96 h [4]: 105 µM

SMILES: Oc1cc(O)c2c(c1)O[C@H](c1ccc(O)c(O)c1)[C@@H](O)C2 [CIANIDANOL]
IC50 [1]: > 10 µg/mL

SMILES: COc1ccc2c(O[C@@H]3C[C@H]4C(=O)N[C@]5(C(=O)O)C[C@H]5/C=C\CCCCC[C@H](NC(=O)OC5CCCC5)C(=O)N4C3)cc(-c3csc(NC(C)C)n3)nc2c1 [CILUPREVIR]
IC50 ([1]; read-out: IC50): 1.54 µM

SMILES: Oc1cc(O)c2c(c1)O[C@H](c1cc(O)c(O)c(O)c1)[C@@H](O)C2 [GALLOCATECHIN]
IC50 [1]: > 10 µg/mL

Continued, in another order:

IC50 ([1]; read-out: IC50): 3.45 µM
EC50 [3]: 13.6 µM
SMILES: O=C(O[C@@H]1O[C@@H]2COC(=O)c3cc(O)c(O)c(O)c3-c3c(cc(O)c(O)c3O)C(=O)O[C@H]([C@H]1O)[C@@H]2O)c1cc(O)c(O)c(O)c1 [CORILAGIN]
selectivity ratio [2]: 7.1
CC50 at 96 h [4]: 96.7 µM

IC50 [1]: > 10 µg/mL
SMILES: COc1cc(O[C@@H]2O[C@H](CO[C@@H]3O[C@H](C)[C@@H](O)[C@H](O)[C@@H]3O)[C@@H](O)[C@H](O)[C@H]2O)ccc1O [CUNEATASIDES D]

IC50 [1]: > 10 µg/mL
SMILES: O=c1oc2c(O)c(O[C@@H]3OC[C@@H](O)[C@H](O)[C@H]3O)cc3c(=O)oc4c(O)c(O)cc1c4c23 [ELLAGIC ACID 4-O-XYLOPYRANOSIDE]

IC50 [1]: > 10 µg/mL
SMILES: OC[C@H]1O[C@@H](Sc2c(O)cc(O)c3c2O[C@H](c2ccc(O)c(O)c2)[C@@H](O)C3)[C@H](O)[C@@H](O)[C@@H]1O [EXCOECARIPHENOL A]

IC50 [1]: > 10 µg/mL
SMILES: OC[C@H]1O[C@@H](Sc2c(O)cc(O)c3c2O[C@H](c2cc(O)c(O)c(O)c2)[C@@H](O)C3)[C@H](O)[C@@H](O)[C@@H]1O [EXCOECARIPHENOL B]

IC50 [1]: > 10 µg/mL
SMILES: COC(=O)Cc1c(C(=O)O[C@H]2[C@H](OC(=O)c3cc(O)c(O)c(O)c3)O[C@@H]3COC(=O)c4cc(O)c(O)c(O)c4-c4c(cc(O)c(O)c4O)C(=O)O[C@H]2[C@@H]3O)cc(O)c(O)c1O [EXCOECARIPHENOL C]

IC50 ([1]; read-out: IC50): 6.93 µM
EC50 [3]: 12.6 µM
SMILES: O=C(O[C@@H]1O[C@@H]2COC(=O)c3cc(O)c(O)c4oc5c(O)c(O)cc(c5c34)C(=O)O[C@@H]3[C@H]1OC(=O)c1cc(O)c(O)c4c1[C@@H]1[C@@]5(C[C@]6(O)OC[C@@H](O)[C@@H]6O[C@@H]5C(O)(O)C(O)(O)[C@]1(O)O4)C(=O)O[C@@H]32)c1cc(O)c(O)c(O)c1 [EXCOECARIPHENOL D]
selectivity ratio [2]: 4.5
CC50 at 96 h [4]: 56.2 µM

IC50 [1]: > 10 µg/mL
SMILES: O=C1O[C@H]2[C@H](O)[C@@H](OC(=O)c3cc(O)c(O)c4c3[C@@H]3C1=CC(=O)C(O)(O)C3(O)O4)[C@H](OC(=O)c1cc(O)c(O)c(O)c1)O[C@@H]2CO (stereo partly drawn) [FUROSIN]

IC50 ([1]; read-out: IC50): 8.91 µM
EC50 [3]: 33.2 µM
SMILES: O=C1O[C@H]2[C@@H]3OC(=O)c4cc(O)c(O)c(O)c4-c4c(cc(O)c(O)c4O)C(=O)OC[C@H]2O[C@@H](OC(=O)c2cc(O)c(O)c(O)c2)[C@@H]3OC(=O)c2cc(O)c(O)c3c2[C@@H]2C1=CC(=O)[C@](O)(O3)C2(O)O [GERANIIN]
selectivity ratio [2]: 1.9
CC50 at 96 h [4]: 63.4 µM

IC50 [1]: > 10 µg/mL
SMILES: C[C@@H]1O[C@@H](OC[C@H]2O[C@@H](OCc3ccccc3)[C@H](O)[C@@H](O)[C@@H]2O)[C@H](O)[C@H](O)[C@H]1O [HYDRANGEIFOLIN I]

IC50 [1]: > 10 µg/mL
SMILES: O=c1c(O[C@@H]2O[C@H](CO)[C@@H](O)[C@H](O)[C@H]2O)c(-c2ccc(O)c(O)c2)oc2cc(O)cc(O)c12 [ISOQUERCETIN]

IC50 [1]: > 10 µg/mL
SMILES: COc1cc(O[C@@H]2O[C@H](CO)[C@@H](O)[C@H](O)[C@H]2O)cc(OC)c1O [KOABURASIDE]
